From EP4741818A1, “COMPOUND TREATMENT METHOD, METHOD FOR PRODUCING COMPOUND OR REACTION PRODUCT OF SAME, SYSTEM FOR TREATING COMPOUND, AND REPLACEMENT TREATMENT COLUMN” (Flugelz Co., Ltd., priority 2023, dated 2025)
≈ marks a conversion by molar mass, not a printed value. Where “and” joins values, the source holds several entries; their conditions need not be identical. Identical values can stand only once.

Experiment: Solubility of the compound in organic solvents and eluents
Assay type: physicochemical
Details: for Solubility (mg/mL) at 25°C / Solubility: 25°C
[1] = eluent hexane and dichloromethane at 6:4 (volume ratio)

Row | SMILES | Solubility (mg/mL) at 25°C (Dichloromethane) [mg/mL] | Solubility (mg/mL) at 25°C (Ethyl acetate) [mg/mL] | Solubility (mg/mL) at 25°C (Toluene) [mg/mL] | solubility in the used eluent [1] [mg/mL] | Solubility (Example 4 eluent Hexane/ethyl acetate (volume ratio: 8:1)) [mg/mL] | Solubility (Example 5 eluent Hexane/toluene (volume ratio: 2:1)) [mg/mL] | Solubility (Example 6 eluent Hexane/THF (volume ratio: 8:1)) [mg/mL] | Solubility (Example 7 eluent Hexane/acetone (volume ratio: 8:1)) [mg/mL] | solubility in the used eluent (eluent hexane and ethyl acetate at 8:1 (volume ratio)) | solubility in the used eluent (eluent hexane and toluene at 3:2 (volume ratio)) [mg/mL]
1 | c1ccc(N(c2ccccc2)c2ccc3[nH]c4ccc(N(c5ccccc5)c5ccccc5)cc4c3c2)cc1 [DACT-II precursor, N,N,N',N'-tetraphenyl-9H-carbazole-3,6-diamine] | 30 (≈ 59.8 mM) | 4 (≈ 7.97 mM) | 10 (≈ 19.9 mM) | 3 | – | – | – | – | – | –
2 | c1ccc(-c2nc(-c3ccccc3)nc(-c3ccc(-n4c5ccc(N(c6ccccc6)c6ccccc6)cc5c5cc(N(c6ccccc6)c6ccccc6)ccc54)cc3)n2)cc1 [DACT-II, 9-[4-(4,6-diphenyl-1,3,5-triazin-2-yl)phenyl]-N,N,N',N'-tetraphenyl-9H-carbazole-3,6-diamine] | 100 (≈ 124 mM) | 6 (≈ 7.42 mM) | 30 (≈ 37.1 mM) | 3 | <1.1 | <5.9 | <2.1 | <0.3 | 1 mg/mL and 1.1 mg/mL | 5
